Data: ChEMBL document CHEMBL2375335, “Discovery of a novel series of non-nucleoside thumb pocket 2 HCV NS5B polymerase inhibitors” (Bioorg Med Chem Lett, 2013)
Active and inactive are the calls of the source. No cut-off for these calls is given here.

tested on: Hepatitis C virus; experiment: Antiviral activity against HCV genotype 1b infected in HuH7 cells assessed as inhibition of viral replication after 48 hrs by RT-PCR analysis; assay type: functional, organism-based; details: Hepacivirus hominis, Huh-7

Row | Compound | Activity
1 | O=C(O)c1cc(Oc2ccccc2)ccc1NS(=O)(=O)c1ccc(Br)cc1F | inactive
2 | Cc1ccc(S(=O)(=O)Nc2ccc(Oc3ccccc3)cc2C(=O)O)cc1 | inactive
3 | Cc1ccc(S(=O)(=O)Nc2cc(Oc3ccccc3)ccc2C(=O)O)cc1 | inactive

biological target: Cytochrome P450 3A4 (Homo sapiens, UniProt P08684); experiment: Inhibition of CYP3A4 (unknown origin); assay type: ADME; details: not given
Sequence (P08684 whole entry): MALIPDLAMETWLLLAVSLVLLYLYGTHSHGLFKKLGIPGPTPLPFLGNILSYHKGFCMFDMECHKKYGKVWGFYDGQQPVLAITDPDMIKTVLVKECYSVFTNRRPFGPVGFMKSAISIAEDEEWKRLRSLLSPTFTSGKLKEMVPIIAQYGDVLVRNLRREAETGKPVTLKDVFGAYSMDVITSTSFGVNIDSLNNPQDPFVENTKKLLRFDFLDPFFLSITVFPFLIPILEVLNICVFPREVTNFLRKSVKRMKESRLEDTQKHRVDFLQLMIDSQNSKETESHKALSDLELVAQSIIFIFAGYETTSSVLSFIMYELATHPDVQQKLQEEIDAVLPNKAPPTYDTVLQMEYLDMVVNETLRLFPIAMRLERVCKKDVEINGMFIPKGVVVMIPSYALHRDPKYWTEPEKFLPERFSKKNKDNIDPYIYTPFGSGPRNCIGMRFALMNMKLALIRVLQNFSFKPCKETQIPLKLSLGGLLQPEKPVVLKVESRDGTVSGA

Row | Compound | IC50 [µM]
4 | O=C(O)c1cc(Oc2ccccc2)ccc1NS(=O)(=O)c1ccc(Br)cc1F | 26
5 | Cc1ccc(S(=O)(=O)Nc2ccc(Oc3ccccc3)cc2C(=O)O)cc1 | > 30
6 | Cc1ccc(S(=O)(=O)Nc2cc(Oc3ccccc3)ccc2C(=O)O)cc1 | > 30

biological target: Cytochrome P450 2D6 (Homo sapiens, UniProt P10635); experiment: Inhibition of CYP2D6 (unknown origin); assay type: ADME; details: not given
Sequence (P10635 whole entry): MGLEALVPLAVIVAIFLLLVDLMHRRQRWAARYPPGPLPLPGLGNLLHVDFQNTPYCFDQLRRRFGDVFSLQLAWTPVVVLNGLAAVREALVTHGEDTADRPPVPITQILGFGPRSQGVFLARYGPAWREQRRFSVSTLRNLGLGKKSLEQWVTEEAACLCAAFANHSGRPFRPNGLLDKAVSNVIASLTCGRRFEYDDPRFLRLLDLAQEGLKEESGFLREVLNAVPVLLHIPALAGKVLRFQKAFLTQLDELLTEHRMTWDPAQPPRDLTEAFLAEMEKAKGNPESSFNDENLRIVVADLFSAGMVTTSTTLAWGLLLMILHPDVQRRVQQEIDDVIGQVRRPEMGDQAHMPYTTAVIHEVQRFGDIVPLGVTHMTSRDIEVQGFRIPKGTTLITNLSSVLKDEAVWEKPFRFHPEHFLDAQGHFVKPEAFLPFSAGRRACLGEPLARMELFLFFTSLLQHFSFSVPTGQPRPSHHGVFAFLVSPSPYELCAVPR

Row | Compound | IC50 [µM]
7 | O=C(O)c1cc(Oc2ccccc2)ccc1NS(=O)(=O)c1ccc(Br)cc1F | > 30
8 | Cc1ccc(S(=O)(=O)Nc2ccc(Oc3ccccc3)cc2C(=O)O)cc1 | > 30
9 | Cc1ccc(S(=O)(=O)Nc2cc(Oc3ccccc3)ccc2C(=O)O)cc1 | > 30

biological target: Cytochrome P450 2C19 (Homo sapiens, UniProt P33261); experiment: Inhibition of CYP2C19 (unknown origin); assay type: ADME; details: not given
Sequence (P33261 whole entry): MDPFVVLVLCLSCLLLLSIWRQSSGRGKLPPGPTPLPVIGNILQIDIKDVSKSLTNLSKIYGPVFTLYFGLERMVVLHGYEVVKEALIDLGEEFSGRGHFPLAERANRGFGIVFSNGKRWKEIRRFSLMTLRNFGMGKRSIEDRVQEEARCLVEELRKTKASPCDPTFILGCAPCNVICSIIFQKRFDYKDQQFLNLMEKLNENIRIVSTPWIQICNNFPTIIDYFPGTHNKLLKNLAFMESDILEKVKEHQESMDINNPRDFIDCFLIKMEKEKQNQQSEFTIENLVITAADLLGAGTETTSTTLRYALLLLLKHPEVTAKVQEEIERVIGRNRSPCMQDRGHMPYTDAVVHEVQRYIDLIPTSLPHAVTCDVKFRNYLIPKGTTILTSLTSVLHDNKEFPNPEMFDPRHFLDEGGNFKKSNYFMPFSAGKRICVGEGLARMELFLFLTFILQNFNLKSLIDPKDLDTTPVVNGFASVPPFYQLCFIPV

Row | Compound | IC50 [µM]
10 | O=C(O)c1cc(Oc2ccccc2)ccc1NS(=O)(=O)c1ccc(Br)cc1F | 1.1
11 | Cc1ccc(S(=O)(=O)Nc2ccc(Oc3ccccc3)cc2C(=O)O)cc1 | > 30
12 | Cc1ccc(S(=O)(=O)Nc2cc(Oc3ccccc3)ccc2C(=O)O)cc1 | 7.9

biological target: Cytochrome P450 2C9 (Homo sapiens, UniProt P11712); experiment: Inhibition of CYP2C9 (unknown origin); assay type: ADME; details: not given
Sequence (P11712 whole entry): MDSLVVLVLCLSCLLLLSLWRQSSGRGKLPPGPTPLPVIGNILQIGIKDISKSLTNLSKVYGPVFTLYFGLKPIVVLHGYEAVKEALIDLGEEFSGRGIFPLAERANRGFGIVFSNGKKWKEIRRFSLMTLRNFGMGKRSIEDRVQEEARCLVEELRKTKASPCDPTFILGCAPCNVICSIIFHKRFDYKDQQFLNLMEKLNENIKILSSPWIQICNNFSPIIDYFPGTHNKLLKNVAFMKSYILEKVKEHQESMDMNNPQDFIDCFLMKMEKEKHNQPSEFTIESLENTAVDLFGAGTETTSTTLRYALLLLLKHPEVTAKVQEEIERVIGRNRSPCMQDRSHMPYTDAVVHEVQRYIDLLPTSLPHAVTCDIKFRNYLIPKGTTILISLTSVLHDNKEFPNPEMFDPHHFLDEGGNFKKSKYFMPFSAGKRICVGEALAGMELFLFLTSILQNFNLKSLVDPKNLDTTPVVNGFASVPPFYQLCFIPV

Row | Compound | IC50 [µM]
13 | O=C(O)c1cc(Oc2ccccc2)ccc1NS(=O)(=O)c1ccc(Br)cc1F | 1.1
14 | Cc1ccc(S(=O)(=O)Nc2ccc(Oc3ccccc3)cc2C(=O)O)cc1 | 3
15 | Cc1ccc(S(=O)(=O)Nc2cc(Oc3ccccc3)ccc2C(=O)O)cc1 | 3.1

tested on: not listed separately; experiment: Half life in human liver microsomes at 10 uM; assay type: ADME, Microsome; details: not given

Row | Compound | half-life at 10 µM [min]
16 | O=C(O)c1cc(Oc2ccccc2)ccc1NS(=O)(=O)c1ccc(Br)cc1F | 27
17 | Cc1ccc(S(=O)(=O)Nc2ccc(Oc3ccccc3)cc2C(=O)O)cc1 | 11
18 | Cc1ccc(S(=O)(=O)Nc2cc(Oc3ccccc3)ccc2C(=O)O)cc1 | 17

biological target: T1, Cytochrome P450 1A2 (Homo sapiens, UniProt P05177); experiment: Inhibition of CYP1A2 (unknown origin); assay type: ADME; details: not given
T1 sequence (P05177 whole entry): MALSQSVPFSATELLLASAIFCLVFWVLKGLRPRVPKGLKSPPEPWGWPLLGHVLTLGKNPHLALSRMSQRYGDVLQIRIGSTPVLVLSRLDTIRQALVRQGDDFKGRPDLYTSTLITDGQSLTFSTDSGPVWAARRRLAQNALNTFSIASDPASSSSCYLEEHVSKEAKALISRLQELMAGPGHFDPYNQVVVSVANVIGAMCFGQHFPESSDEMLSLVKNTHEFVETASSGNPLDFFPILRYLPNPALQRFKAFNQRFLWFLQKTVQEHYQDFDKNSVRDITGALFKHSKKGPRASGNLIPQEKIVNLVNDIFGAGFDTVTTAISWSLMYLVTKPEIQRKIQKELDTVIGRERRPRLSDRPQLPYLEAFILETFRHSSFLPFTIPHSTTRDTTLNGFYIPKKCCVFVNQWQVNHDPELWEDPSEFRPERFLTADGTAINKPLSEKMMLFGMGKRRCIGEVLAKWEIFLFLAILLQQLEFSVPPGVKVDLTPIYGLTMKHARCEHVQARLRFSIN

Row | Compound | IC50 [µM]
19 | O=C(O)c1cc(Oc2ccccc2)ccc1NS(=O)(=O)c1ccc(Br)cc1F | > 30
20 | Cc1ccc(S(=O)(=O)Nc2ccc(Oc3ccccc3)cc2C(=O)O)cc1 | 1.8
21 | Cc1ccc(S(=O)(=O)Nc2cc(Oc3ccccc3)ccc2C(=O)O)cc1 | > 30

tested on: not listed separately; experiment: Permeability from apical to basal side of human Caco2 cells at pH 7.4; assay type: ADME, cell-based; details: Caco-2, pH 7.4, read-out: permeability

Row | Compound | Papp A→B [×10⁻⁶ cm/s]
22 | O=C(O)c1cc(Oc2ccccc2)ccc1NS(=O)(=O)c1ccc(Br)cc1F | < 0.1
23 | Cc1ccc(S(=O)(=O)Nc2ccc(Oc3ccccc3)cc2C(=O)O)cc1 | 2.2
24 | Cc1ccc(S(=O)(=O)Nc2cc(Oc3ccccc3)ccc2C(=O)O)cc1 | 2.4

tested on: not listed separately; experiment: Solubility of the compound in buffer after 24 hrs at pH 7.2 by shake flask method; assay type: physicochemical; details: not given

Row | Compound | solubility thermodynamic at 24 h [µg/mL]
25 | O=C(O)c1cc(Oc2ccccc2)ccc1NS(=O)(=O)c1ccc(Br)cc1F | > 900
26 | Cc1ccc(S(=O)(=O)Nc2ccc(Oc3ccccc3)cc2C(=O)O)cc1 | > 900
27 | Cc1ccc(S(=O)(=O)Nc2cc(Oc3ccccc3)ccc2C(=O)O)cc1 | > 700

tested on: Hepatitis C virus (isolate BK); experiment: Ratio of IC50 for HCV genotype 1b isolate BK NS5B Cdelta21 RNA dependent RNA polymerase L419M mutant to IC50 for HCV genotype 1b isolate BK wild type NS5B Cdelta21 RNA dependent RNA polymerase; details: not given

Row | Compound | Ratio IC50
28 | O=C(O)c1cc(Oc2ccccc2)ccc1NS(=O)(=O)c1ccc(Br)cc1F | 15
29 | Cc1ccc(S(=O)(=O)Nc2ccc(Oc3ccccc3)cc2C(=O)O)cc1 | 15
30 | Cc1ccc(S(=O)(=O)Nc2cc(Oc3ccccc3)ccc2C(=O)O)cc1 | 15

tested on: not listed separately; experiment: Inhibition of calf thymus RNA polymerase 2; design: species or system Bos taurus; details: not given

Row | Compound | IC50 [µM]
31 | O=C(O)c1cc(Oc2ccccc2)ccc1NS(=O)(=O)c1ccc(Br)cc1F | > 100
32 | Cc1ccc(S(=O)(=O)Nc2ccc(Oc3ccccc3)cc2C(=O)O)cc1 | > 100
33 | Cc1ccc(S(=O)(=O)Nc2cc(Oc3ccccc3)ccc2C(=O)O)cc1 | > 100

biological target: RNA-directed RNA polymerase (Hepacivirus hominis, UniProt O39930, M414T); experiment: Inhibition of HCV genotype 1b isolate BK NS5B Cdelta21 RNA dependent RNA polymerase M414T mutant using [3H]UTP as substrate incubated for 25 mins prior to substrate addition measured after 120 mins by scintillation proximity assay; design: species or system Hepatitis C virus (isolate BK); details: not given
Sequence (O39930 entry or part of it M414T): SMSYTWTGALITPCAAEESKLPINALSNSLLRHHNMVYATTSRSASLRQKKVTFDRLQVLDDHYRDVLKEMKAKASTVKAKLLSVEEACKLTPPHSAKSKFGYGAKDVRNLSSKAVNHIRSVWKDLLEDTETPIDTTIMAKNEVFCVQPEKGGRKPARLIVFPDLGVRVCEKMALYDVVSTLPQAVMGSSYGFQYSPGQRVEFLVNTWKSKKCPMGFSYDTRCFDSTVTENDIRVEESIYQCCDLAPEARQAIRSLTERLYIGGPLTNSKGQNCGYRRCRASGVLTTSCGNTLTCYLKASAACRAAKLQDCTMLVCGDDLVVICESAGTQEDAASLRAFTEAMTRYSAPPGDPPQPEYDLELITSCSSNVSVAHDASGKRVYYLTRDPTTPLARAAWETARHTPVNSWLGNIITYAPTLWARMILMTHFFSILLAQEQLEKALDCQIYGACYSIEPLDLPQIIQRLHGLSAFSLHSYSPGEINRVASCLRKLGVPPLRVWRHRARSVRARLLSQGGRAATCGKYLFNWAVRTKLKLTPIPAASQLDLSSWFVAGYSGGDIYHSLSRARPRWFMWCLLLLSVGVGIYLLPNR

Row | Compound | IC50 [µM]
34 | O=C(O)c1cc(Oc2ccccc2)ccc1NS(=O)(=O)c1ccc(Br)cc1F | 0.052
35 | Cc1ccc(S(=O)(=O)Nc2cc(Oc3ccccc3)ccc2C(=O)O)cc1 | 0.052

biological target: RNA-directed RNA polymerase (Hepacivirus hominis, UniProt O39930, P495S); experiment: Inhibition of HCV genotype 1b isolate BK NS5B Cdelta21 RNA dependent RNA polymerase P495S mutant using [3H]UTP as substrate incubated for 25 mins prior to substrate addition measured after 120 mins by scintillation proximity assay; design: species or system Hepatitis C virus (isolate BK); details: not given
Sequence (O39930 entry or part of it P495S): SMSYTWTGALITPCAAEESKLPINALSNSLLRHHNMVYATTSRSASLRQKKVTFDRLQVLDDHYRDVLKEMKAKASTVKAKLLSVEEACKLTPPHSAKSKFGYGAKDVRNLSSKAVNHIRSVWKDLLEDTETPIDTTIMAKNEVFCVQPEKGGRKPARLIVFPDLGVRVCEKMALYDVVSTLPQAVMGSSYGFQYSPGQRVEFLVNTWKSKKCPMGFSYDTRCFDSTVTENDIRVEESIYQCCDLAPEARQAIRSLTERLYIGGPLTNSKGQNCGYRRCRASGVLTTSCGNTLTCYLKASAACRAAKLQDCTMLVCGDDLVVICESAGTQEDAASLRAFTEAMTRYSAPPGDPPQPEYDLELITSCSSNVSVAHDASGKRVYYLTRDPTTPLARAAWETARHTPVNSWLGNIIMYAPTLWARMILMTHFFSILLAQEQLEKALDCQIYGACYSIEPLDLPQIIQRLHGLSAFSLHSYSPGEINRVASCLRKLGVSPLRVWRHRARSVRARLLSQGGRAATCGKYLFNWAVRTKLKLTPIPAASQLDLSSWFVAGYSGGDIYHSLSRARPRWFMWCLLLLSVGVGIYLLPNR

Row | Compound | IC50 [µM]
36 | O=C(O)c1cc(Oc2ccccc2)ccc1NS(=O)(=O)c1ccc(Br)cc1F | 0.093
37 | Cc1ccc(S(=O)(=O)Nc2cc(Oc3ccccc3)ccc2C(=O)O)cc1 | 0.077

biological target: not listed separately; experiment: Inhibition of HCV genotype 1b isolate BK NS5B Cdelta21 RNA dependent RNA polymerase L419M mutant using [3H]UTP as substrate incubated for 25 mins prior to substrate addition measured after 120 mins by scintillation proximity assay; design: species or system Hepatitis C virus (isolate BK); details: not given

Row | Compound | IC50 [µM]
38 | O=C(O)c1cc(Oc2ccccc2)ccc1NS(=O)(=O)c1ccc(Br)cc1F | 1.8
39 | Cc1ccc(S(=O)(=O)Nc2ccc(Oc3ccccc3)cc2C(=O)O)cc1 | 1.2
40 | Cc1ccc(S(=O)(=O)Nc2cc(Oc3ccccc3)ccc2C(=O)O)cc1 | 1.2

biological target: RNA-directed RNA polymerase (Hepacivirus hominis, UniProt O39930, M423T); experiment: Inhibition of HCV genotype 1b isolate BK NS5B Cdelta21 RNA dependent RNA polymerase M423T mutant using [3H]UTP as substrate incubated for 25 mins prior to substrate addition measured after 120 mins by scintillation proximity assay; design: species or system Hepatitis C virus (isolate BK); details: not given
Sequence (O39930 entry or part of it M423T): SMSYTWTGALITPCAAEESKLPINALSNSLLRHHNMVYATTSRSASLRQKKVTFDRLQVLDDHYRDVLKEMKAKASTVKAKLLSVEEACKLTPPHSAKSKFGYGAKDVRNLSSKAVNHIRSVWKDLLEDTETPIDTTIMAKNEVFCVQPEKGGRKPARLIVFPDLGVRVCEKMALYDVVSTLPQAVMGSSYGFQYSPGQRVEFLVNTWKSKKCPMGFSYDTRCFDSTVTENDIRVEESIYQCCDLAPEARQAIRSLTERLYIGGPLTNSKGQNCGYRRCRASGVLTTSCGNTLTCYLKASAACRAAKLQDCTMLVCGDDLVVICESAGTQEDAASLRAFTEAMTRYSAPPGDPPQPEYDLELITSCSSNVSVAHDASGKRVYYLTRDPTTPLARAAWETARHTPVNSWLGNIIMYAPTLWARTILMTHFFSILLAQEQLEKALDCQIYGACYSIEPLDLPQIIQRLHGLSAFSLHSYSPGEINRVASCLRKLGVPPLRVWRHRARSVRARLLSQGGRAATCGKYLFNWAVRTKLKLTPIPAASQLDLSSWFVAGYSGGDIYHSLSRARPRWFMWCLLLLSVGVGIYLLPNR

Row | Compound | IC50 [µM]
41 | O=C(O)c1cc(Oc2ccccc2)ccc1NS(=O)(=O)c1ccc(Br)cc1F | 0.2
42 | Cc1ccc(S(=O)(=O)Nc2ccc(Oc3ccccc3)cc2C(=O)O)cc1 | 0.17
43 | Cc1ccc(S(=O)(=O)Nc2cc(Oc3ccccc3)ccc2C(=O)O)cc1 | 0.1

biological target: not listed separately; experiment: Inhibition of HCV genotype 1b isolate BK NS5B Cdelta21 RNA dependent RNA polymerase using [3H]UTP as substrate incubated for 25 mins prior to substrate addition measured after 120 mins by scintillation proximity assay; design: species or system Hepatitis C virus (isolate BK); details: not given

Row | Compound | IC50 [µM]
44 | O=C(O)c1cc(Br)ccc1NS(=O)(=O)c1cc(Cl)c(Cl)cc1Cl | 9
45 | O=C(O)c1ccc(Cl)cc1NS(=O)(=O)c1cc(F)c(Br)cc1F | 6.8
46 | O=C(O)c1ccc(Cl)cc1NS(=O)(=O)c1cc(Cl)c(Cl)cc1Cl | 11
47 | O=C(O)c1cc(Br)ccc1NS(=O)(=O)c1ccc(Cl)c(Cl)c1 | 8.4
48 | O=C(O)c1cc(Oc2ccccc2)ccc1NS(=O)(=O)c1ccc(Br)cc1F | 0.11
49 | Cc1cc(NS(=O)(=O)c2cc(Cl)c(Cl)cc2Cl)no1 | 100
50 | O=C(O)c1ccc(-c2ccccc2)cc1NS(=O)(=O)c1ccc(Br)s1 | 6.7
51 | Cc1ccc(S(=O)(=O)Nc2ccc(Oc3ccccc3)cc2C(=O)O)cc1 | 0.086
52 | O=C(O)c1ccc(Oc2ccccc2)cc1NS(=O)(=O)c1ccc(Br)cc1F | 0.31
53 | O=C(O)c1cc(-c2ccccc2)ccc1NS(=O)(=O)c1ccc(Br)s1 | 3.7
54 | Cc1ccc(S(=O)(=O)Nc2cc(Oc3ccccc3)ccc2C(=O)O)cc1 | 0.072
55 | O=C(O)c1cc(Br)ccc1NS(=O)(=O)c1cc(F)c(Br)cc1F | 4.5
56 | O=C(O)c1cc(Br)ccc1NS(=O)(=O)c1ccc(Br)s1 | 6.1
57 | O=C(O)c1ccc(Cl)cc1NS(=O)(=O)c1ccc(Br)s1 | 4.6
58 | O=C(O)c1cc(Oc2ccccc2)ccc1NS(=O)(=O)c1ccc(Br)s1 | 0.55
59 | O=C(O)c1cc(Br)ccc1NS(=O)(=O)c1ccccc1 | 43
60 | O=C(O)c1ccccc1NS(=O)(=O)c1cc(Cl)c(Cl)cc1Cl | 26
61 | O=C(O)c1ccc(Oc2ccccc2)cc1NS(=O)(=O)c1ccc(Br)s1 | 0.61
